According to PubChem BioAssay AID2060349 (Molecular Pharmacology Branch, DTP, NCI, 2025):
Values joined by “and” are separate entries in the source; they are usually repeats but may differ in a detail not shown here. Equal entries are not always repeated.

System: 762968-020-R-J2-PDC spheroids viability
Test: Anticancer human tumor 762968-020-R-J2-PDC patient-derived colon carcinoma cell line growth inhibition [TAK]
Details: spheroids with HUVEC and MSC; for viability, T/C: stronger effect = lower value
Method in brief: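 Tumor cells were grown as spheroids with HUVEC and hMSC (60:25:15) and treated with targeted agents combined with TAK-243 or ipatasertib. Drugs were tested in half-log steps down from near the clinical Cmax, or from 10 microM where Cmax was unknown.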

[1] = curve of first compound, second compound 0.3 µM
[2] = curve of first compound, second compound 0.949 µM
[3] = curve of first compound, second compound 3 µM
[4] = curve of first compound, second compound 9.49 µM
[5] = curve of first compound, second compound 30 µM
[6] = second compound 0.3 µM, first compound 0.316 µM
[7] = second compound 0.3 µM, first compound 1 µM
[8] = second compound 0.3 µM, first compound 3.16 µM
[9] = second compound 0.3 µM, first compound 10 µM
[10] = second compound 0.949 µM, first compound 0.316 µM
[11] = second compound 0.949 µM, first compound 1 µM
[12] = second compound 0.949 µM, first compound 3.16 µM
[13] = second compound 0.949 µM, first compound 10 µM
[14] = second compound 3 µM, first compound 0.316 µM
[15] = second compound 3 µM, first compound 1 µM
[16] = second compound 3 µM, first compound 3.16 µM
[17] = second compound 3 µM, first compound 10 µM
[18] = second compound 9.49 µM, first compound 0.316 µM
[19] = second compound 9.49 µM, first compound 1 µM
[20] = second compound 9.49 µM, first compound 3.16 µM
[21] = second compound 9.49 µM, first compound 10 µM
[22] = second compound 30 µM, first compound 0.316 µM
[23] = second compound 30 µM, first compound 1 µM
[24] = second compound 30 µM, first compound 3.16 µM
[25] = second compound 30 µM, first compound 10 µM
[26] = second compound 0.3 µM, first compound 0.0316 µM
[27] = second compound 0.3 µM, first compound 0.1 µM
[28] = second compound 0.949 µM, first compound 0.0316 µM
[29] = second compound 0.949 µM, first compound 0.1 µM
[30] = second compound 3 µM, first compound 0.0316 µM
[31] = second compound 3 µM, first compound 0.1 µM
[32] = second compound 9.49 µM, first compound 0.0316 µM
[33] = second compound 9.49 µM, first compound 0.1 µM
[34] = second compound 30 µM, first compound 0.0316 µM
[35] = second compound 30 µM, first compound 0.1 µM
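Also: spheroids exposed to drug for 7 days before readout.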
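For viability, T/C in this document: 100% = DMSO vehicle control wells.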

Molecule `CCCS(=O)(=O)Nc1ccc(F)c(C(=O)c2c[nH]c3ncc(-c4ccc(Cl)cc4)cc23)c1F` + CC(C)NCC(C(=O)N1CCN(c2ncnc3c2C(C)CC3O)CC1)c1ccc(Cl)cc1 has an IC50 [1] of over 100 µM, an IC50 [2] of 23.6 µM and an IC50 [3] of over 100 µM. For the same molecule, the IC50 [4] was over 100 µM, the IC50 [5] was 17.9 µM and the viability, T/C [6] was 94.5%. The viability, T/C [7] was 95.2%, the viability, T/C [8] was 94.4% and the viability, T/C [9] was 72.3%. It also gave a viability, T/C (second compound 0.3 µM, first compound 31.6 µM) of 13.6%, a viability, T/C (second compound 0.3 µM, first compound 100 µM) of 97.5% and a viability, T/C [10] of 89.9%. The viability, T/C [11] was 93.2%, the viability, T/C [12] was 94.6% and the viability, T/C [13] was 57.5%. For the same molecule, the viability, T/C (second compound 0.949 µM, first compound 31.6 µM) was 1.16%, the viability, T/C (second compound 0.949 µM, first compound 100 µM) was 93.7% and the viability, T/C [14] was 97.6%. For the same molecule, the viability, T/C [15] was 93.3%, the viability, T/C [16] was 101% and the viability, T/C [17] was 71.3%. For the same molecule, the viability, T/C (second compound 3 µM, first compound 31.6 µM) was 0.49%, the viability, T/C (second compound 3 µM, first compound 100 µM) was 97.8% and the viability, T/C [18] was 91.9%. The viability, T/C [19] was 94.1%, the viability, T/C [20] was 89.1% and the viability, T/C [21] was 70.2%. For the same molecule, the viability, T/C (second compound 9.49 µM, first compound 31.6 µM) was 18.5%, the viability, T/C (second compound 9.49 µM, first compound 100 µM) was 105% and the viability, T/C [22] was 77.2%. The viability, T/C [23] was 90.9%, the viability, T/C [24] was 87.4% and the viability, T/C [25] was 53.6%. It also gave a viability, T/C (second compound 30 µM, first compound 31.6 µM) of 2.13% and a viability, T/C (second compound 30 µM, first compound 100 µM) of 90.7%.

In the case of `CC(=O)Nc1cccc(-n2c(=O)n(C3CC3)c(=O)c3c(Nc4ccc(I)cc4F)n(C)c(=O)c(C)c32)c1`, the viability, T/C (compound 94.9 pM) is reported as 98.7% and 103%, the viability, T/C (compound 0.0003 µM) is reported as 103% and 97.5% and the viability, T/C (compound 0.000949 µM) is reported as 97.3%. For the same molecule, the viability, T/C (compound 0.003 µM) was 86.9% and 80.5%, the viability, T/C (compound 0.00949 µM) was 60.6% and 73.2% and the viability, T/C (compound 0.03 µM) was 41.2% and 39%. For the same molecule, the IC50 (curve of compound) was 0.0178 µM and 0.0204 µM.

In the case of `CC(C)n1nc(-c2ccc3oc(N)nc3c2)c2c(N)ncnc21`, the viability, T/C (compound 0.000316 µM) is reported as 99% and 96.9%, the viability, T/C (compound 0.001 µM) is reported as 99% and 101% and the viability, T/C (compound 0.00316 µM) is reported as 98.2% and 101%. The viability, T/C (compound 0.01 µM) was 94.8% and 99.8%, the viability, T/C (compound 0.0316 µM) was 89.5% and 103% and the viability, T/C (compound 0.1 µM) was 66.5% and 83.3%. It also gave an IC50 (curve of compound) of over 0.1 µM.

`CC(C)CC(NC(=O)CNC(=O)c1cc(Cl)ccc1Cl)B1OC(=O)CC(CC(=O)O)(C(=O)O)O1` (stereo not drawn) + CC(C)NCC(C(=O)N1CCN(c2ncnc3c2C(C)CC3O)CC1)c1ccc(Cl)cc1 gave an IC50 [1] of over 0.1 µM, an IC50 [2] of over 0.1 µM and an IC50 [3] of over 0.1 µM. For the same molecule, the IC50 [4] was over 0.1 µM, the IC50 [5] was over 0.1 µM and the viability, T/C (second compound 0.3 µM, first compound 0.000316 µM) was 100%. The viability, T/C (second compound 0.3 µM, first compound 0.001 µM) was 105%, the viability, T/C (second compound 0.3 µM, first compound 0.00316 µM) was 93.4% and the viability, T/C (second compound 0.3 µM, first compound 0.01 µM) was 108%. For the same molecule, the viability, T/C [26] was 99.4%, the viability, T/C [27] was 79.5% and the viability, T/C (second compound 0.949 µM, first compound 0.000316 µM) was 94%. The viability, T/C (second compound 0.949 µM, first compound 0.001 µM) was 93.8%, the viability, T/C (second compound 0.949 µM, first compound 0.00316 µM) was 97.1% and the viability, T/C (second compound 0.949 µM, first compound 0.01 µM) was 103%. It also gave a viability, T/C [28] of 103%, a viability, T/C [29] of 70.6% and a viability, T/C (second compound 3 µM, first compound 0.000316 µM) of 104%. For the same molecule, the viability, T/C (second compound 3 µM, first compound 0.001 µM) was 102%, the viability, T/C (second compound 3 µM, first compound 0.00316 µM) was 98.2% and the viability, T/C (second compound 3 µM, first compound 0.01 µM) was 105%. For the same molecule, the viability, T/C [30] was 95.2%, the viability, T/C [31] was 73.4% and the viability, T/C (second compound 9.49 µM, first compound 0.000316 µM) was 94%. It also gave a viability, T/C (second compound 9.49 µM, first compound 0.001 µM) of 94.8%, a viability, T/C (second compound 9.49 µM, first compound 0.00316 µM) of 102% and a viability, T/C (second compound 9.49 µM, first compound 0.01 µM) of 101%. The viability, T/C [32] was 95.5%, the viability, T/C [33] was 79.9% and the viability, T/C (second compound 30 µM, first compound 0.000316 µM) was 79%. For the same molecule, the viability, T/C (second compound 30 µM, first compound 0.001 µM) was 89.4%, the viability, T/C (second compound 30 µM, first compound 0.00316 µM) was 89.4% and the viability, T/C (second compound 30 µM, first compound 0.01 µM) was 88%. The viability, T/C [34] was 84.5% and the viability, T/C [35] was 72.7%.

`CCCS(=O)(=O)Nc1ccc(F)c(C(=O)c2c[nH]c3ncc(-c4ccc(Cl)cc4)cc23)c1F` was tested, and the viability, T/C (compound 0.316 µM) was 88.9% and 96.2%, the viability, T/C (compound 1 µM) was 87.8% and 96.9% and the viability, T/C (compound 3.16 µM) was 90.3% and 92.5%. For the same molecule, the viability, T/C (compound 10 µM) was 73.6% and 62.2%, the viability, T/C (compound 31.6 µM) was 99.2% and 102% and the viability, T/C (compound 100 µM) was 90.3% and 105%. The IC50 (curve of compound) was over 100 µM.

Molecule `CC(C)(C)c1nc(-c2cccc(NS(=O)(=O)c3c(F)cccc3F)c2F)c(-c2ccnc(N)n2)s1` + CC(C)NCC(C(=O)N1CCN(c2ncnc3c2C(C)CC3O)CC1)c1ccc(Cl)cc1 has an IC50 [1] of over 10 µM, an IC50 [2] of over 10 µM and an IC50 [3] of over 10 µM. It also gave an IC50 [4] of over 10 µM, an IC50 [5] of over 10 µM and a viability, T/C [26] of 92.8%. It also gave a viability, T/C [27] of 91.4%, a viability, T/C [6] of 84.8% and a viability, T/C [7] of 84.3%. For the same molecule, the viability, T/C [8] was 92.4%, the viability, T/C [9] was 94.7% and the viability, T/C [28] was 93.9%. The viability, T/C [29] was 90.2%, the viability, T/C [10] was 84.6% and the viability, T/C [11] was 86%. It also gave a viability, T/C [12] of 88.4%, a viability, T/C [13] of 92.8% and a viability, T/C [30] of 95.6%. For the same molecule, the viability, T/C [31] was 87.1%, the viability, T/C [14] was 94.8% and the viability, T/C [15] was 85.9%. For the same molecule, the viability, T/C [16] was 92%, the viability, T/C [17] was 95% and the viability, T/C [32] was 92.5%. For the same molecule, the viability, T/C [33] was 86.4%, the viability, T/C [18] was 83.9% and the viability, T/C [19] was 79.9%. The viability, T/C [20] was 72%, the viability, T/C [21] was 92.5% and the viability, T/C [34] was 81.4%. It also gave a viability, T/C [35] of 80.5%, a viability, T/C [22] of 81.6% and a viability, T/C [23] of 74.1%. For the same molecule, the viability, T/C [24] was 74.5% and the viability, T/C [25] was 93.5%.

`CC(C)CC(NC(=O)CNC(=O)c1cc(Cl)ccc1Cl)B1OC(=O)CC(CC(=O)O)(C(=O)O)O1` (stereo not drawn) was tested, and the viability, T/C (compound 0.000316 µM) was 100% and 110%, the viability, T/C (compound 0.001 µM) was 109% and 98.2% and the viability, T/C (compound 0.00316 µM) was 104% and 108%. The viability, T/C (compound 0.01 µM) was 97.5% and 107%, the viability, T/C (compound 0.0316 µM) was 96.1% and 98% and the viability, T/C (compound 0.1 µM) was 78.6% and 80.6%. It also gave an IC50 (curve of compound) of over 0.1 µM.
